{"source": "patent US20250281444A1", "about": "“COMPOUND WITH NEW SKELETON OF URSANE TRITERPENOID - ENT-KAURANE DITERPENOID DIMER, AND PREPARATION METHOD THEREOF AND APPLICATION THEREOF” (NANJING UNIVERSITY OF CHINESE MEDICINE, priority 2025, published 2025)", "type_in_all_cases": "cell-based", "key": {"[1]": {"tested_on": "colon cancer cell line HT-29", "assay": "cells", "settings": "for IC50: 72 hours, CCK-8, read-out: IC50 ± SD, HT-29", "protocol": "(§1) A pancreatic cancer cell line MIA PaCa-2, a colon cancer cell line HT-29, a lung cancer cell line A549, and a liver cancer cell line HepG2 (cell bank of Chinese Academy of Sciences) were cultured in a DMEM culture solution containing 10% fetal bovine serum (Gibco Company) at 37° C. under 5% CO2. HT-29, A549 and HepG2 cell culture media were supplemented with 10% FBS and 1% PSN, and a MIA PaCa-2 cell culture medium was supplemented with 10% FBS, 2.5% HS and 1% PSN.\n(§2) Different volumes of DMEM culture media were added to dilute the compounds into different concentrations. Meanwhile, a DMEM culture medium containing 0.1% DMSO was used as a negative control.\n(§3) Tumor cells were suspended in a culture medium, MIA PaCa-2, HT-29 and HepG2 cells were inoculated into a 96-well plate at a cell density of 8000, A549 cells were inoculated into a 96-well plate at a cell density of 3000 (100 μL/well), and the cells were cultured at 37° C. under 5% CO2 for 24 hours. In a logarithmic growth phase of the tumor cell lines, different concentrations of compounds (0, 0.004, 0.04, 0.4, 4, and 40 μM) were added to culture the cells at 37° C. under 5% CO2 for 72 hours.\n(§4) After 72 hours of interaction between the drugs and the tumor cells, 10 μL of CCK-8 solution was added into each well to incubate the cells in a sterile incubator for 1 hour, and then the solution was taken out to determine an OD value by a microplate reader at a wavelength of 450 nm. IC50 (median inhibitory concentration) values of the compounds were calculated by GraphPad Prism 8 software, and 5-FU and Carboplatin were used as positive controls."}, "[2]": {"tested_on": "liver cancer cell line HepG2", "assay": "cells", "settings": "for IC50: 72 hours, CCK-8, read-out: IC50 ± SD, HepG2", "protocol": "as §1, §2, §3, §4"}, "Candida albicans C5": {"tested_on": "Candida albicans C5", "assay": "MIC, compound 1 alone and combined with amphotericin B", "from_the_text": "(§5) Helicobacter pylori (G27 and HP129) and Candida albicans (SC5314 and C5) both came from Professor Hongkai Bi's laboratory of Nanjing Medical University. Main culture mediums and main reagents: Colombian culture medium, LB culture medium, selective antibiotics (metronidazole and amphotericin B), serum, and the like.\n(§6) LB culture medium: 15 g/L glucose, 10 g/L yeast extract, 5 g/L peptone, and 10 g/L sodium chloride.\n(§7) (1) Sample solutions of the compounds 1 and 2 prepared in Embodiment 1 were configured to have a concentration of 2 mg/mL.\n(§8) (2) In preparation by a MIC plate, a first well was added with 173.6 μL of culture medium and then added with 6.4 μL of antibacterial drug, and dilution was carried out by multiple proportions to a 7th well; and an 8th well was not added with the drug, but was reserved with 90 μL of culture medium to serve as a control with bacteria but no drug.\n(§9) (4) In inoculation, 10 μL of bacterial solution was added into the 1st to 8th wells (a concentration of the bacterial solution in each well was about 1.0×10^6 CFU/mL). Results were judged after 72 hours of culture. Drug concentrations from the 1st to 7th wells were 64 μg/mL, 32 μg/mL, 16 μg/mL, 8 μg/mL, 4 μg/mL, 2 μg/mL, and 1 μg/mL respectively.\n(§10) (5) In result judgment, a lowest drug concentration capable of completely inhibiting the growth of bacteria in the wells was MIC. The test was only meaningful when the bacteria in the 8th well of the positive control well (without antibiotics) grew obviously. When there was a single drift in a microdilution method, a highest drug concentration capable of inhibiting the growth of bacteria should be recorded. If there were many drifts, the results should not be reported, and the test should be repeated. Each drug was tested repeatedly for 3 times."}, "Candida albicans SC5314": {"tested_on": "Candida albicans SC5314", "assay": "MIC, compound 1 alone and combined with amphotericin B", "from_the_text": "as §5, §6, §7, §8, §9, §10"}, "[3]": {"tested_on": "lung cancer cell line A549", "settings": "for IC50: 72 hours, CCK-8, read-out: IC50 ± SD, A549", "protocol": "as §1, §2, §3, §4"}, "[4]": {"tested_on": "pancreatic cancer cell line MIA PaCa-2", "settings": "for IC50: 72 hours, CCK-8, read-out: IC50 ± SD, MIA PaCa-2", "protocol": "as §1, §2, §3, §4"}, "[5]": {"tested_on": "Helicobacter pylori H. pylori 129", "assay": "Determination of MIC (microdilution)", "settings": "72 hours of culture, R = drug-resistant strain", "protocol": "as §5\n(§11) Colombian liquid culture medium: 29.0 g of Colombian liquid culture medium was accurately weighed, heated, and dissolved in 1000 mL of double distilled water, and the culture medium was subjected to autoclaved sterilization at 121° C. for 15 minutes after being completely dissolved for later use.\n(§12) Colombian blood agar solid culture medium: 39.0 g of Colombian blood agar solid culture medium was accurately weighed, heated, and dissolved in 1000 mL of double distilled water, and the culture medium was subjected to autoclaved sterilization at 121° C. for 15 minutes after being completely dissolved, naturally cooled to about 50° C. after the autoclaved sterilization, quickly added with 5% sterile deflbrinated sheep blood, mixed evenly, and then poured into a sterile dish while the mixture was hot.\n(§13) Standard strains of Helicobacter pylori were taken out of a refrigerator at −80° C. and placed at room temperature, 200 μL of standard strains were accurately sucked, transferred to a solid culture medium, and spread with an L-shaped glass rod, a culture dish loaded with the strains was put into a culture bag, then an AnaeroPack was put into the culture bag, and the culture bag was quickly sealed and then put into a constant-temperature incubator at 37° C. to culture the strains for 72 hours. After the end of culture, the Helicobacter pylori was identified first, then a bacterial lawn on the solid culture medium was scraped off, and the bacterial lawn was transferred into 50 mL of liquid culture medium to serve as an original bacterial solution.\nas §7, §8\n(§14) (3) In preparation of bacterial solution, the Helicobacter pylori growing at a logarithmic phase on a solid plate was made into a bacterial suspension with a BHI culture medium, an OD600 value of concentration of the bacterial suspension was adjusted to be 0.3 (1×10^8 CFU/mL), and then the bacterial suspension was diluted 10 times to reach 1×10^7 CFU/mL for later use.\nas §9, §10"}, "[6]": {"tested_on": "Helicobacter pylori H. pylori G27", "assay": "Determination of MIC (microdilution)", "settings": "72 hours of culture", "protocol": "as §5, §11, §12, §13, §7, §8, §14, §9, §10"}}, "note": "Where two headings read alike, the source gives them in different places."}
{"smiles": "O=c1[nH]cc(F)c(=O)[nH]1", "note": "[5-Fluorouracil, reference compound]", "values": [{"measurement": "IC50", "setting": "[1]; Homo sapiens, HT-29", "result": "12.87 ± 0.04", "unit": "µM"}, {"measurement": "IC50", "setting": "[2]; Homo sapiens, HepG2", "result": "4.82 ± 0.07", "unit": "µM"}]}
{"smiles": "C[C@@H]1[C@H](O)[C@@H](C)/C=C/C=C/C=C/C=C/C=C/C=C/C=C/[C@H](O[C@@H]2O[C@H](C)[C@@H](O)[C@H](N)[C@@H]2O)C[C@@H]2O[C@](O)(C[C@@H](O)C[C@@H](O)[C@H](O)CC[C@@H](O)C[C@@H](O)CC(=O)O[C@H]1C)C[C@H](O)[C@H]2C(=O)O", "note": "[AMB, amphotericin B, reference compound]", "values": [{"measurement": "AMB MIC, separate use", "setting": "Candida albicans C5; C5, AMB alone", "result": 2, "unit": "µg/mL"}, {"measurement": "AMB MIC, separate use", "setting": "Candida albicans SC5314; SC5314, AMB alone", "result": 2, "unit": "µg/mL"}]}
{"smiles": "N.N.O=C([O-])C1(C(=O)[O-])CCC1.[Pt+2]", "note": "[Carboplatin, reference compound]", "values": [{"measurement": "IC50", "setting": "[3]", "result": "> 40", "unit": "µM"}]}
{"smiles": "COC(=O)C12CCC(C)(CC3C(=O)C45C(O)C3CCC4C34COC5(O)C(O)C3C(C)(C)CCC4O)C(C)=C1C1=CCC3C4(C)CC(O)C(O)C(C)(C)C4CCC3(C)C1(C)CC2", "note": "(centres unmarked) [Compound 1, Bisicacinol B]", "values": [{"measurement": "cytotoxic activity in words, A549", "setting": "[3]", "result": "strong activity"}, {"measurement": "IC50", "setting": "[3]", "result": "4.2 ± 0.24", "unit": "µM"}, {"measurement": "cytotoxic activity in words, MIA PaCa-2", "setting": "[4]", "result": "strong activity"}, {"measurement": "IC50", "setting": "[4]", "result": "13.1 ± 0.18", "unit": "µM"}, {"measurement": "cytotoxic activity in words, HT-29", "setting": "[1]", "result": "strong activity"}, {"measurement": "IC50", "setting": "[1]", "result": "14.95 ± 0.14", "unit": "µM"}, {"measurement": "cytotoxic activity in words, HepG2", "setting": "[2]", "result": "strong activity"}, {"measurement": "IC50", "setting": "[2]", "result": "14.84 ± 0.12", "unit": "µM"}, {"measurement": "MIC, H. pylori 129", "setting": "[5]", "result": 32, "unit": "µg/mL"}, {"measurement": "MIC, H. pylori G27", "setting": "[6]", "result": 16, "unit": "µg/mL"}, {"measurement": "Compound 1 MIC, combined use", "setting": "Candida albicans C5; C5, combined with AMB", "result": 1, "unit": "µg/mL"}, {"measurement": "FICI index after combination", "setting": "Candida albicans C5; C5, compound 1 + AMB", "result": "≤0.078"}, {"measurement": "Compound 1 MIC, separate use", "setting": "Candida albicans C5; C5, compound 1 alone", "result": ">32", "unit": "µg/mL"}, {"measurement": "MIC + 0.5 μg/ml AMB", "setting": "Candida albicans C5; C5, compound 1 with 0.5 μg/ml AMB", "result": 1, "unit": "µg/mL"}, {"measurement": "inhibitory effect on growth in words, used separately", "setting": "Candida albicans C5; Candida albicans C5, compound alone", "result": "no significant inhibitory effect"}, {"measurement": "inhibitory effect on growth in words, used separately", "setting": "Candida albicans SC5314; Candida albicans SC5314, compound alone", "result": "no significant inhibitory effect"}, {"measurement": "Compound 1 MIC, combined use", "setting": "Candida albicans SC5314; SC5314, combined with AMB", "result": 1, "unit": "µg/mL"}, {"measurement": "FICI index after combination", "setting": "Candida albicans SC5314; SC5314, compound 1 + AMB", "result": "≤0.078"}, {"measurement": "Compound 1 MIC, separate use", "setting": "Candida albicans SC5314; SC5314, compound 1 alone", "result": ">32", "unit": "µg/mL"}, {"measurement": "MIC + 0.5 μg/ml AMB", "setting": "Candida albicans SC5314; SC5314, compound 1 with 0.5 μg/ml AMB", "result": 1, "unit": "µg/mL"}]}
{"smiles": "COC(=O)C12CCC(C)(CC3C(=O)C45C(O)C3CCC4C34COC5(O)C(O)C3C(C)(C)CCC4O)C(C)=C1C1=CCC3C4(C)CC(O)C(O)C(C)(C)C4CCC3(C)C1(C)CC2", "note": "(centres unmarked) [Compound 2, Bisicacinol C]", "values": [{"measurement": "cytotoxic activity in words, A549", "setting": "[3]", "result": "strong inhibitory activity"}, {"measurement": "IC50", "setting": "[3]", "result": "23.1 ± 0.12", "unit": "µM"}, {"measurement": "IC50", "setting": "[4]", "result": "> 40", "unit": "µM"}, {"measurement": "cytotoxic activity in words, HT-29", "setting": "[1]", "result": "strong inhibitory activity"}, {"measurement": "IC50", "setting": "[1]", "result": "33.35 ± 0.06", "unit": "µM"}, {"measurement": "IC50", "setting": "[2]", "result": "> 40", "unit": "µM"}, {"measurement": "MIC, H. pylori 129", "setting": "[5]", "result": 32, "unit": "µg/mL"}, {"measurement": "MIC, H. pylori G27", "setting": "[6]", "result": 16, "unit": "µg/mL"}]}
{"smiles": "Cc1ncc([N+](=O)[O-])n1CCO", "note": "[MTZ, metronidazole, reference compound]", "values": [{"measurement": "MIC", "setting": "[5]; Helicobacter pylori", "result": 8, "unit": "µg/mL"}, {"measurement": "MIC", "setting": "[6]; Helicobacter pylori", "result": 2, "unit": "µg/mL"}]}
